# Read-outs that look alike come from different tables or passages of the source.
# Tests used:
# [1] = tested on: Streptococcus pyogenes; experiment: microbe, parasite or virus in culture; assay type: cell-based; conditions: for MIC: Streptococcus pyogenes, per-compound listing, Example 6, read-out: MIC S. pyogenes; for MIC S. pyogenes, G+: Table 3
# [2] = tested on: C. elegans; experiment: motility assay; assay type: in vivo; parameters: key to Movement score, 1/1600 / Movement score, 1/800 / Movement score, 1/400 / Movement score, 1/200 / Movement score, 1/100: normal (−); slow (+); very slow (++); not motile/paralyzed (+++); conditions: for Movement score, 1/100: dilution 1/100 of stock (10.24 μg/μL; SK-03-92 1.024 μg/μL); for Movement score, 1/100 / Movement score, 1/200 / Movement score, 1/400 / Movement score, 1/800 / Movement score, 1/1600: Ive 1 ng/μL in all wells; for Movement score, 1/200: dilution 1/200 of stock (10.24 μg/μL; SK-03-92 1.024 μg/μL); for Movement score, 1/400: dilution 1/400 of stock (10.24 μg/μL; SK-03-92 1.024 μg/μL); for Movement score, 1/800: dilution 1/800 of stock (10.24 μg/μL; SK-03-92 1.024 μg/μL); for Movement score, 1/1600: dilution 1/1600 of stock (10.24 μg/μL; SK-03-92 1.024 μg/μL), overnight 20° C.; for effect on worms at the lowest concentrations tested: at least triplicate
# [3] = tested on: Bacillus cereus; experiment: microbe, parasite or virus in culture; assay type: cell-based; conditions: for MIC: Bacillus cereus, per-compound listing, Example 6, read-out: MIC B. cereus; for MIC B. cereus, G+ (anthrax surrogate): Table 3
# [4] = tested on: Staphylococcus aureus MRSA MC-1; experiment: microbe, parasite or virus in culture; assay type: cell-based; conditions: Staphylococcus aureus, MRSA
# [5] = tested on: C. elegans L1 larvae; experiment: developmental assay; assay type: in vivo; parameters: key to Developmental score, 1/1600 / Developmental score, 1/800 / Developmental score, 1/400 / Developmental score, 1/200 / Developmental score, 1/100: dead (+++); distressed (++); slightly delayed (+); the same as M9-only untreated wells (−); conditions: after four days, Ive 1 ng/μL in each well; for Developmental score, 1/100: dilution 1/100; for Developmental score, 1/200: dilution 1/200; for Developmental score, 1/400: dilution 1/400; for Developmental score, 1/800: dilution 1/800; for Developmental score, 1/1600: dilution 1/1600
# [6] = tested on: Staphylococcus aureus ATCC 29213; experiment: microbe, parasite or virus in culture; assay type: cell-based; conditions: Staphylococcus aureus, ATCC29213
# [7] = tested on: M. smegmatis; experiment: MIC assay; assay type: cell-based; conditions: Mycolicibacterium smegmatis, read-out: MIC M. smegmatis
# [8] = tested on: Enterococcus faecium VRE 1; experiment: organism not typed; assay type: cell-based; conditions: for MIC E. faecium VRE 1, G+: Table 3; for MIC: read-out: MIC VRE
# [9] = tested on: Mycobacterium avium; experiment: MIC assay; assay type: cell-based; conditions: Mycobacterium avium, read-out: MIC M. avium
# [10] = tested on: Mycobacterium chelonae; experiment: MIC assay; assay type: cell-based; conditions: read-out: MIC M. chelonae
# [11] = tested on: Mycobacterium fortuitum; experiment: MIC assay; assay type: cell-based; conditions: Mycolicibacterium fortuitum, read-out: MIC M. fortuitum
# [12] = tested on: M. kansasii; experiment: MIC assay; assay type: cell-based; conditions: Mycobacterium kansasii, read-out: MIC M. kansasii
# [13] = tested on: Mycobacterium intracellulare; experiment: MIC assay; assay type: cell-based; conditions: Mycobacterium intracellulare, read-out: MIC M. intracellulare
# [14] = per-compound listing, Example 6, read-out: MIC S. aureus
# [15] = per-compound listing, Example 6
# [16] = Table 6, read-out: MIC S. aureus ATCC 29213
smiles,measurement,setting,value
"COc1ccc(O/C=C/c2cc(O)cc(OC)c2)cc1 [Compound A6, 4-Methoxyphenyl-E-(3-hydroxy-5methoxy)-styryl ether]",MIC,[1],32 µg/mL
same,"MIC S. pyogenes, G+",[1],32 µg/mL
same,"Movement score, 1/100",[2],+++
same,"Movement score, 1/200",[2],+++
same,"Movement score, 1/400",[2],++
same,"Movement score, 1/800",[2],+
same,"Movement score, 1/1600",[2],−
same,MIC,[3],64 µg/mL
same,"MIC B. cereus, G+ (anthrax surrogate)",[3],64 µg/mL
same,MIC,[4]; read-out: MIC MRSA,64 µg/mL
same,"Developmental score, 1/100",[5],+++
same,"Developmental score, 1/200",[5],+++
same,"Developmental score, 1/400",[5],+
same,"Developmental score, 1/800",[5],−
same,"Developmental score, 1/1600",[5],−
same,MIC,[6]; [14],32 µg/mL
same,MIC,[7]; [15],128 µg/mL
same,"MIC E. faecium VRE 1, G+",[8],64 µg/mL
same,MIC,[8],64 µg/mL
"COc1cc(O)cc(/C=C/Oc2cccc(OC)c2)c1 [Compound A8, 3-Methoxyphenyl-E-(3-hydroxy-5-methoxy)-styryl ether]",MIC,[1],16 µg/mL
same,"MIC S. pyogenes, G+",[1],16 µg/mL
same,"Movement score, 1/100",[2],+++
same,"Movement score, 1/200",[2],++
same,"Movement score, 1/400",[2],++
same,"Movement score, 1/800",[2],+
same,"Movement score, 1/1600",[2],+
same,MIC,[3],64 µg/mL
same,"MIC B. cereus, G+ (anthrax surrogate)",[3],64 µg/mL
same,MIC,[4]; read-out: MIC MRSA,64 µg/mL
same,"Developmental score, 1/100",[5],+++
same,"Developmental score, 1/200",[5],+++
same,"Developmental score, 1/400",[5],−
same,"Developmental score, 1/800",[5],−
same,"Developmental score, 1/1600",[5],−
same,MIC,[6]; [14],32 µg/mL
same,MIC,[7]; [15],128 µg/mL
same,"MIC E. faecium VRE 1, G+",[8],64 µg/mL
same,MIC,[8],64 µg/mL
"COc1cc(O)cc(/C=C/Oc2cccc(C)c2)c1 [Compound A9, 3-Methylphenyl-E-(3-hydroxy-5-methoxy)-styryl ether]",MIC,[1],32 µg/mL
same,"MIC S. pyogenes, G+",[1],32 µg/mL
same,"Movement score, 1/100",[2],+++
same,"Movement score, 1/200",[2],+++
same,"Movement score, 1/400",[2],++
same,"Movement score, 1/800",[2],++
same,"Movement score, 1/1600",[2],+
same,effect on worms at the lowest concentrations tested,[2],"reduced motility, paralysis, or death"
same,MIC,[3],32 µg/mL
same,"MIC B. cereus, G+ (anthrax surrogate)",[3],16 µg/mL
same,MIC,[4]; read-out: MIC MRSA,32 µg/mL
same,"Developmental score, 1/100",[5],+++
same,"Developmental score, 1/200",[5],+++
same,"Developmental score, 1/400",[5],+++
same,"Developmental score, 1/800",[5],−
same,"Developmental score, 1/1600",[5],−
same,MIC,[6]; [14],16 µg/mL
same,MIC,[7]; [15],64 µg/mL
same,"MIC E. faecium VRE 1, G+",[8],32 µg/mL
same,MIC,[8],32 µg/mL
"COc1cc(O)cc(/C=C/Oc2ccc(C)cc2)c1 [Compound A10, 4-Methylphenyl-E-(3-hydroxy-5-methoxy)-styryl ether]",MIC,[1],32 µg/mL
same,"MIC S. pyogenes, G+",[1],32 µg/mL
same,"Movement score, 1/100",[2],+++
same,"Movement score, 1/200",[2],+++
same,"Movement score, 1/400",[2],+++
same,"Movement score, 1/800",[2],++
same,"Movement score, 1/1600",[2],+
same,effect on worms at the lowest concentrations tested,[2],"reduced motility, paralysis, or death"
same,MIC,[3],64 µg/mL
same,"MIC B. cereus, G+ (anthrax surrogate)",[3],64 µg/mL
same,MIC,[4]; read-out: MIC MRSA,32 µg/mL
same,"Developmental score, 1/100",[5],+++
same,"Developmental score, 1/200",[5],+++
same,"Developmental score, 1/400",[5],++
same,"Developmental score, 1/800",[5],−
same,"Developmental score, 1/1600",[5],−
same,MIC,[6]; [14],16 µg/mL
same,MIC,[7]; [15],> 128 µg/mL
same,"MIC E. faecium VRE 1, G+",[8],32 µg/mL
same,MIC,[8],32 µg/mL
COc1cc(O)cc(/C=C/c2ccc(O)cc2)c1 [SK-04-02],MIC,"[4]; Table 6, read-out: MIC S. aureus MC-1",32 µg/mL
same,MIC,[9],16 µg/mL
same,MIC,[6]; [16],32 µg/mL
same,MIC,[10],32 µg/mL
same,MIC,[11],64 µg/mL
same,MIC,[7],64 µg/mL
same,MIC,[12],32 µg/mL
same,MIC,[13],16 µg/mL
COc1cc(O)cc(/C=C/c2cccc(O)c2)c1 [SK-04-03],"Movement score, 1/100",[2],++
same,"Movement score, 1/200",[2],++
same,"Movement score, 1/400",[2],+
same,"Movement score, 1/800",[2],+
same,"Movement score, 1/1600",[2],−
same,MIC,[4]; read-out: MIC S. aureus MC-1,16 µg/mL
same,MIC,[9]; Table 6,8 µg/mL
same,"Developmental score, 1/100",[5],+++
same,"Developmental score, 1/200",[5],+
same,"Developmental score, 1/400",[5],−
same,"Developmental score, 1/800",[5],−
same,"Developmental score, 1/1600",[5],−
same,MIC,[6]; [16],32 µg/mL
same,MIC,[10]; Table 6,64 µg/mL
same,MIC,[11]; Table 6,64 µg/mL
same,MIC,[7]; Table 6,64 µg/mL
same,MIC,[12]; Table 6,64 µg/mL
same,MIC,[13]; Table 6,16 µg/mL
COc1cc(O)cc(C#Cc2ccccc2)c1 [SK-04-08],"Movement score, 1/100",[2],+++
same,"Movement score, 1/200",[2],+++
same,"Movement score, 1/400",[2],++
same,"Movement score, 1/800",[2],+
same,"Movement score, 1/1600",[2],+
same,MIC,[4]; read-out: MIC S. aureus MC-1,1 µg/mL
same,MIC,[9]; Table 6,16 µg/mL
same,"Developmental score, 1/100",[5],+++
same,"Developmental score, 1/200",[5],+++
same,"Developmental score, 1/400",[5],−
same,"Developmental score, 1/800",[5],−
same,"Developmental score, 1/1600",[5],−
same,MIC,[6]; [16],32 µg/mL
same,MIC,[11]; Table 6,32 µg/mL
same,MIC,[7]; Table 6,64 µg/mL
same,MIC,[12]; Table 6,32 µg/mL
same,MIC,[13]; Table 6,16 µg/mL

# From patent US8530512B2, “Broad spectrum gram-positive antimicrobials and anthelmintics with efficacy against drug-resistant strains and Mycobacterium species” (priority 2004, dated 2013)
